{"source": "patent US10172822B2", "about": "“Pharmaceutical use of 3-benzylsulfonylpropionitrile” (Olatec Therapeutics LLC, priority 2013, dated 2019)", "key": {"[1]": {"system": "arachidonic acid-induced ear swelling", "experiment": "topical arachidonic acid-induced ear swelling model in mice", "assay_type": "in vivo", "procedure": "The test compound, indomethacin (positive control), and vehicle were evaluated for anti-inflammatory activity in a topical arachidonic acid-induced ear swelling model in mice. Male ICR mice weighing 22±2 g were used and randomly divided; the test compound and vehicle control had 10 mice, and indomethacin had 5 mice. Arachidonic Acid (0.5 mg in 20 μl of acetone:ethanol/1:1) was applied topically to the anterior and posterior surfaces of the right ear of each mice. Test substances and vehicle, as listed in Table 1 were similarly applied 30 min before and 15 min after arachidonic acid application. The thickness of the right ear and the left ear was measured and the difference calculated as an indication of the inflammation in the right ear. Ear swelling was measured by a Dyer model micrometer gauge at 60 and 90 minutes after arachidonic acid application as an index of inflammation. Percent inhibition was calculated according to the formula: Ic−It/Ic×100, where Ic and It refers to increase of ear thickness (mm) in control and treated mice, respectively. ANOVA and Dunnett's test were employed to ascertain significant difference between vehicle control and treated groups. Significance is set at P<0.05 level."}, "[2]": {"system": "tail flick reaction to heat", "experiment": "tail flick test in mice (49° C. water bath)", "assay_type": "in vivo", "procedure": "The tail flick test is a test of the pain response in animals. The tail flick test is used in basic pain research and to measure the effectiveness of analgesics, by observing the tail flick reaction to heat in an animal. This test assesses the nociceptive response to a local pain stimulus, and the ability of a drug to inhibit this response.\nVehicle control (DMSO) and test compound 3-benzylsulfonylpropionitrilein in DMSO were administered by oral gavage to mice with a volume of 5 mL/kg, immediately prior to testing, at time zero. The test compound was administered at a dosage of 500 mg/kg in DMSO. Positive control morphine in water was administered at time zero by subcutaneous injection at 8 mg/kg to mice. […] The purpose of morphine is […] to serve as a comparison with the test compound. Each group had 10 mice.\nThe response of mice to heat stimulus was evaluated by measuring the time of tail-flick or tail-flick latency from 49° C. water bath. Briefly, the animal was held with its tail hanging down. Approximately 2 inches of the tail was immersed in a beaker of water at 38±1° C. for about 30 seconds, and this was done twice to acclimate the animal to the procedure.\nSubsequently, approximately 2 inches of the tail was immersed in a beaker of water at 49±1° C., at which point a timer was started.\nTail flick measurements were made at 0, 30, 60, and 120 minutes post administration of the dosage of test compound, vehicle, or morphine. An ANOVA was done, and if p<0.05, a Dunnett's t test was employed to calculate significant difference between vehicle control and test compound treated groups. A pairwise Student's t test was used to calculate differences between the morphine group and the control group. […] Analysis with p-values <0.05 is considered significant."}}}
{"compound": "N#CCCS(=O)(=O)Cc1ccccc1", "note": "[3-Benzylsulfonylpropionitrile, 3-benzylsulfonylpropionitrile]", "values": [{"measurement": "anti-inflammatory activity in the mouse ear swelling model", "setting": "[1]; applied topically, inflammation induced by arachidonic acid", "result": "anti-inflammatory"}, {"measurement": "tail flick latency compared with vehicle-treated mice", "setting": "[2]; oral administration 500 mg/kg in DMSO, 30, 60, and 120 minutes post dosing", "result": "statistically significant tail flick latency"}]}
{"compound": "COc1ccc2c(c1)c(CC(=O)O)c(C)n2C(=O)c1ccc(Cl)cc1", "note": "[Indomethacin, indomethacin, reference compound]", "values": [{"measurement": "% Inhibition of ear swelling", "setting": "[1]; topical application 30 min before and 15 min after arachidonic acid, measured at 90 minutes after arachidonic acid, relative to vehicle", "result": 58, "unit": "%"}]}
{"compound": "CN1CC[C@]23c4c5ccc(O)c4O[C@H]2[C@@H](O)C=C[C@H]3[C@H]1C5", "note": "[morphine]", "values": [{"measurement": "tail flick latency compared with vehicle-treated mice", "setting": "[2]; subcutaneous injection 8 mg/kg, 30 and 60 minutes post dosing", "result": "statistically significant tail flick latency"}, {"measurement": "tail flick latency compared with vehicle-treated mice", "setting": "[2]; subcutaneous injection 8 mg/kg, 120 minutes post dosing", "result": "not"}]}
